The nature of this series: Water-solubility measurement at 26° C. The format is physicochemical. The note with it: in water, measured at 26° C. On the procedure: The water-solubilities of the methanol solvate of meropenem obtained in the above as well as meropenem trihydrate were measured at 26° C.

The molecule `C[C@@H](O)[C@H]1C(=O)N2C(C(=O)O)=C(S[C@@H]3CN[C@H](C(=O)N(C)C)C3)[C@H](C)[C@H]12` [meropenem trihydrate, (4R,5S,6S)-3-((3S,5S)-5-(dimethylcarbamoyl)pyrrolidin-3-ylthio)-6-((R)-1-hydroxyethyl)-4-methyl-7-oxo-1-azabicyclo[3.2.0]hept-2-ene-2-carboxylic acid] showed a water-solubility of 16.4 mg/mL.
Under `C[C@@H](O)[C@H]1C(=O)N2C(C(=O)O)=C(S[C@@H]3CN[C@H](C(=O)N(C)C)C3)[C@H](C)[C@H]12` [methanol solvate of meropenem, (4R,5S,6S)-3-((3S,5S)-5-(dimethylcarbamoyl)pyrrolidin-3-ylthio)-6-((R)-1-hydroxyethyl)-4-methyl-7-oxo-1-azabicyclo[3.2.0]hept-2-ene-2-carboxylic acid] stands 57.6 mg/mL.

(Values after patent US9328115B2, “Process for preparing meropenem trihydrate” (DAEWOONG PHARMACEUTICAL CO., LTD., priority 2012, dated 2016).)
